“Also recorded” adds a separate entry of the source.
Tests used:
[1] = target: T1, reverse transcriptase enzyme of the HIV-1 virus (Human immunodeficiency virus type 1 group M subtype B, UniProt P04585); experiment: reverse transcriptase activity of lysed viral particles on polyrC/oligo(dG); type: biochemical; details: polyrC matrix, oligo (dG) primer
T1 construct: endogenous in cells; host or cells: viral particles concentrated from the supernatant of a CEM cell culture, lysed in non-ionic detergent
Experimental: The specificity of the compounds according to the invention for integrase is estimated by an activity test on the reverse transcriptase enzyme of the HIV-1 virus. This test is carried out in the following manner: The viral particles of a supernatant of a CEM cell culture (established lymphocyte line) are concentrated by centrifugation at 30,000 RPM. These viral particles are lysed in a non-ionic detergent and their reverse transcriptase activity is tested on a substrate formed from a hybridized oligo (dG) primer on a polyrC matrix. In the presence of radiolabelled nucleotide dG, the transcriptase activity is expressed by the formation of labelled polynucleotide which can be precipitated in trichloroacetic acid. This confirms that a dideoxynucleotide ddG inhibits the formation of acid precipitatable.

[2] = system: HIV-1; experiment: HIV-1 replication in CEM cells, infectious virus load on Hela β-gal CD4+ cells; type: cell-based; details: read-out: β-gal activity, 50% effectiveness on production of viral particles, 72 hours, HeLa β-gal colorimetric test, global antiviral effect
Source text: This is quantified in two of the following ways:

[3] = target: T2, HIV-1 integrase (Human immunodeficiency virus type 1 group M subtype B, UniProt P04585); details: three tests: endonucleolytic cleavage, strand transfer, disintegration
Experimental: 1—The endonucleolytic activity of the protein is tested on a double-strand oligonucleotide of 21 base pairs, radiolabelled at the 5′ end. The activity of the integrase is expressed by elimination of the dinucleotide at the 3′ end.
2—The strand transfer test is carried out with a double-strand oligonucleotide of 21 base pairs mimicking the end of the viral DNA, the 3′ terminal dinucleotide of which has been supressed. The activity of the protein is expressed by the covalent insertion of this oligonucleotide in a homologous oligonucleotide.
3—The disintegration test is carried out with a substrate mimicking the structure of the integrated viral DNA. The quantity of DNA excised by the integrase is measured. This last test only quantifies the catalytic activity of the protein excluding its fixation activity on the DNA.

[4] = system: ACH2 cells; experiment: toxicity on ACH2 cells, MTT biotransformation test; type: cell-based
Experimental: (§1) The toxicity of the compounds is tested by a biotransformation test of MTT to formazan by cellular mitochondrial dehydrogenases.
(§2) The compounds according to the present invention were tested on the late stages of the replication of HIV-1. The test is as follows: The ACH2 cells which integrated HIV-1 viral DNA were used. […] When the cells are used in the presence of TNF, they express the HIV virus from the integrated provirus. The production of viral particles is detected 24 hours after activation. The viral load in the supernatant is quantified by the ELISA p24 test.

[5] = target: EcoRI restriction enzyme (Escherichia coli, UniProt P00642); experiment: inhibition of cleavage of linearized pSP65 plasmid by EcoRI; type: biochemical; details: 4 hours, 0.1 units EcoRI
Sequence of EcoRI restriction enzyme (P00642 whole entry): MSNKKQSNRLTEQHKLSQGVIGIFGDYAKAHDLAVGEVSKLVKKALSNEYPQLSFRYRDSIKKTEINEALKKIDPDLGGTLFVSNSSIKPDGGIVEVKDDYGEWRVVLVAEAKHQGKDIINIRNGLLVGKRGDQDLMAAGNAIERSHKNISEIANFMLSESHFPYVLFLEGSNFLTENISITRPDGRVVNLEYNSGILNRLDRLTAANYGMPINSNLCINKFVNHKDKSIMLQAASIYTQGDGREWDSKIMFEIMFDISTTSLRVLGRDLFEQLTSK
Experimental: The catalytic site of HIV-1 integrase is very close to that of the EcoRI restriction enzyme. The compounds which block both proteins are therefore catalytic inhibitors of integrase.
The linearized plasmid is incubated for 4 hours in the presence of 0.1 units of the EcoRI enzyme. The enzyme activity is monitored by the appearance of the cleavage products on 1.2% agarose gel.

[6] = system: CEM cells; experiment: toxicity on CEM cells, MTT biotransformation test; type: cell-based
Experimental: as §1

[7] = system: HIV-1; experiment: late stages of HIV-1 replication in TNF-activated ACH2 cells, p24 ELISA; type: cell-based; details: 24 hours; for effect on the production of viral particles (in words): ACH2 cells
Experimental: as §2

[8] = system: HIV-1; details: 72 hours, ELISA p24
Experimental: The activity test consists of putting the cells of an established lymphocyte line, CEM cells, in contact with a supernatant of infected cells containing the infectious virions. The test is carried out in the following manner: The CEM cells, cultured in suspension in RPMI medium supplemented with 10% of foetal calf serum, are infected with a viral supernatant with a multiplicity of infection of 0.5. After 2 hours of infection, the cells are washed twice with RPMI medium in a manner so as to eliminate the residual viral particles. Finally, the cells are replaced in RPMI medium containing the compound according to the invention. The viral load is evaluated after 72 hours of culture. This is quantified in two of the following ways:
1) The quantity of viral protein p24 is determined by an ELISA test.

[9] = target: T2, HIV-1 integrase; experiment: strand transfer test of HIV-1 integrase; type: biochemical; details: read-out: strand transfer, concentration necessary to block 50% of the activity of HIV-1 integrase
[10] = target: T2, HIV-1 integrase; experiment: disintegration test of HIV-1 integrase; type: biochemical; details: read-out: disintegration, concentration necessary to block 50% of the activity of HIV-1 integrase
[11] = target: T2, HIV-1 integrase; experiment: endonucleolytic cleavage test of HIV-1 integrase (21 bp oligonucleotide); type: biochemical; details: read-out: endonucleolytic cleavage, concentration necessary to block 50% of the activity of HIV-1 integrase

| Compound | reverse transcription inhibition (in words) [1] | EC50 [2] [nM] | anti-integrase activity in the tests for in vitro activity (in words) [3] | MTT, toxicity by biotransformation [4] [µM] | cleavage by EcoRI (in words) [5] | MTT, toxicity by biotransformation [6] [µM] | toxicity according to the MTT test (in words) ([6]; up to 100 μM, maximum concentration tested) | effect on the production of viral particles (in words) ([7]; above 50 μM) | effect on the production of viral particles (in words) ([7]; concentrations up to 100 μM) | IC50 ([7]; Human immunodeficiency virus 1, ACH-2, ACH2 cells activated by TNF, effect on the late stages, read-out: p24 test, inhibitory 50% concentration) [nM] | anti-viral effect, production of viral particles / replication in CEM cells (in words) [8] | IC50 [9] [nM] | IC50 [10] [nM] | IC50 [11] [nM] |
| --- | --- | --- | --- | --- | --- | --- | --- | --- | --- | --- | --- | --- | --- | --- |
| O=C(O)c1ccc2ccc(/C=C/c3ccc(O)c(O)c3)nc2c1O [Compound 1, 8-hydroxy-2-[2-[(3,4-dihydroxyphenyl)ethenyl]]7-quinoline carboxylic acid] | no reverse transcription inhibition | 4000 | inhibit the three activites | >100 | strongly inhibited | >100 | devoid of toxicity | slight inhibition | No other significant effect | > 100000 | – | – | – | – |
| O=C([O-])c1ccc2ccc(C=Cc3ccc(O)c(O)c3)nc2c1O.[Na+] [Compound 2, sodium salt of 8-hydroxy-2-[2-[(3,4-dihydroxyphenyl)ethenyl]]7-quinoline-carboxylic acid] | – | – | – | – | – | – | – | – | – | – | blocks the production of viral particules; also recorded: same anti-viral effect | – | – | – |
| O=C(O)c1ccc2ccc(/C=C/c3cc(O)c(O)c(O)c3)nc2c1O [Compound 3, 8-hydroxy-2-[2-[(3.4,5-trihydroxyphenyl)ethenyl]]7-quinoline carboxylic acid] | – | – | inhibit the three activites | – | – | – | – | – | – | – | – | 310 | 56 | 320 |
